One assay concerns naive C57B1/6 mice. Nature of the assay: PPI in naive C57B1/6 mice. In kind it is in vivo, mouse.
Another assay concerns BDNF. Nature of the assay: qPCR of BDNF transcripts in hippocampus. The following applies: mRNA, offspring of poly I:C treated dams treated at 8 weeks with Kp-10 or PBS. In kind it is in vivo, mouse. How it is done:
RNA purification, cDNA synthesis, reverse transcription PCR, and real-time quantitative PCR analysis. For RNA expression analysis, cells from whole hippocampi were extracted with TRI Reagent (MRC, Cincinnati, Ohio), and total cellular RNA was purified from the lysates using the RNeasy kit (Qiagen, Hilden, Germany). RNA (1 μg) was converted to cDNA using SuperScript II (Promega, Madison, Wis.). The amplification cycle was 95° C. for 5 s, 60° C. for 20 s, and 72° C. for 15 s.
The following primers were used: […]
To understand what is the mechanism behind the prophylactic treatment of Kp-10 we examined the expression of total brain-derived neurotrophic factor (BDNF) and its exon transcripts 1-4 according to Zajac et al. (2010). […] Recently, association between a BDNF variant and childhood-onset mood disorder was established (Strauss et al., 2005). Therefore, we studied mRNA expression of a few BDNF transcripts in the hippocampus of offspring of PBS treated dams (n=5) compared to offspring of poly I:C treated dams, which were treated at 8 weeks with either Kp-10 (n=6) or PBS (n=6) (Table 3). […] Treatment with Kp-10 at 8 weeks of age induced an increase in the expression of BDNF1 transcript to the normal level (Table 3(ii)). […] In addition, no significant difference was found between the groups in the expression of BDNF transcripts 3 and 4 (Table 3(iv and v)). […] The involvement of BDNF in schizophrenia and its effect on PPI levels are still a debate. Our observations of changes in expression of selective forms of BDNF might explain this apparent dichotomy.

Another assay deals with naive mice. Nature of the assay: Tail suspension test. Format: in vivo, mouse. The following applies: 100 μl of 100 μM, vs PBS. On the procedure: Tail suspension test. The tail suspension apparatus was made of horizontal metal rod supported by a stand. Each mouse was suspended from its tail using adhesive tape, suspending each mouse individually. The immobility time was measured during a 6 min observation period, latency to first immobility and total immobility was calculated (FIG. 10A).
The results we presented above using the PPI paradigm only relate to the psychotic symptoms of schizophrenia. However, schizophrenia patients suffer from cognitive and negative symptoms as well (i.e depression). […] To address whether Kp-10 has an antidepressant potency we studied its effect in the tail suspension test, an established method for screening antidepressant-like activity in mice (Steru et al., 1985; Cryan et al., 2005). Naïve mice were treated with Kp-10 (SEQ ID NO:3; 100 μl of 100 μM) or PBS and were subjected to the tail suspension test, in which the mouse is suspended by the tail from a lever, and the movements of the animal are recorded (FIG. 10A). The latency to the first immobility was longer and the duration of the total immobility was shorter in the Kp-10 treated mice compared to PBS treated mice (FIGS. 10B-10C).

Another assay concerns C57B1/6 mice. Description: PPI in MK-801 pharmacological model of schizophrenia. Format: in vivo, mouse. The following applies: Kp-10 i.p. 100 μl of 100 μM 15 min prior to MK-801 (0.1 mg/kg). How it is done:
(§1) Prepulse Inhibition (PPI). PPI testing was performed within startle chambers purchased from Med Associates Inc (Med Associates, St. Albans, Vt., USA). PPI was analyzed as described previously (Kipnis et al., 2004). Briefly, during a period of acclimation, a 65-dB background noise was applied for 5-min, and continued throughout the test session. All sessions for testing of PPI consisted of startle trials (pulse alone, 40-ms, 120-dB), prepulse trials (prepulse 20-ms, 69, 73, 78, or 81 dB followed by a (100-ms delay) pulse), and no-stimulus trials. All sessions were presented in pseudo-random order. The average time between trials was 15 s (range 12-30 s). PPI was calculated as: % PPI=100−{[(startle response for prepulse+pulse)/(startle response for pulse-alone)]×100}. In all the experiments, there were no significant differences between groups in trials of startle reactivity to pulse alone, and in no-stimulation trials. Data from no-stimulation trials are not included in the results because the values obtained were negligible relative to values from trials containing startle stimuli. Reduced PPI is associated with schizophrenia-related behavior. […]
To further establish the antipsychotic effect of Kp-10, we evaluated its ability to overcome psychotic symptoms induced by the psycho-mimetic agent, MK-801 (N-methyl-D-aspartate (NMDA) antagonist), which induces neurotransmitter imbalance. […]

The test system of a further assay is SCID mice. Nature of the assay: Prepulse inhibition (PPI) in SCID mice. The following applies: adult (12 week old) SCID mice, i.p. 100 μl of 100 μM, 30 minutes prior to PPI testing, vs PBS. Format: in vivo, mouse. On the procedure:
as §1, with “trials.” for “trials. Data from no-stimulation trials are not included in the results because the values obtained were negligible relative to values from trials containing startle stimuli. Reduced PPI is associated with schizophrenia-related behavior.”
To confirm this possibility we examined whether injection of kisspeptin can restore the abnormal PPI in SCID mice to the normal level in wild-type mice. We analyzed the PPI in adult (12 week old) wild-type mice and, in SCID mice that were injected IP with 100 μl of 100 μM Kp-10 (SEQ ID NO:3), 30 minutes prior to PPI testing. […]

The next assay addresses GPR54 (Mus musculus, UniProt Q91V45). The following applies: in vivo; cited from earlier work.

Chain of GPR54 (Q91V45 whole entry): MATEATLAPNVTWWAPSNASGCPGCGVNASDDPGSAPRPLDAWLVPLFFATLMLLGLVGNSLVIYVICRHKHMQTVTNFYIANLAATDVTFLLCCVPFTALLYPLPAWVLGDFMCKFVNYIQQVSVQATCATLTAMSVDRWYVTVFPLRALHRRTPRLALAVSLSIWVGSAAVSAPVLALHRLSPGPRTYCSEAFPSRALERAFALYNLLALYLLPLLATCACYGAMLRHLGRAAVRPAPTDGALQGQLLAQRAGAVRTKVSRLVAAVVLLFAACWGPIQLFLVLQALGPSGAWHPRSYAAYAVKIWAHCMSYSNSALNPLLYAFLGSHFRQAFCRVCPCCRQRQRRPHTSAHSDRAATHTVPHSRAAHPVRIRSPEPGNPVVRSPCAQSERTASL
Description for naive C57B1/6 mice: Prepulse Inhibition (PPI). PPI testing was performed within startle chambers purchased from Med Associates Inc (Med Associates, St. Albans, Vt., USA). […] Briefly, during a period of acclimation, a 65-dB background noise was applied for 5-min, and continued throughout the test session. All sessions for testing of PPI consisted of startle trials (pulse alone, 40-ms, 120-dB), prepulse trials (prepulse 20-ms, 69, 73, 78, or 81 dB followed by a (100-ms delay) pulse), and no-stimulus trials. All sessions were presented in pseudo-random order. The average time between trials was 15 s (range 12-30 s). PPI was calculated as: % PPI=100−{[(startle response for prepulse+pulse)/(startle response for pulse-alone)]×100}. […] Data from no-stimulation trials are not included in the results because the values obtained were negligible relative to values from trials containing startle stimuli.
Kisspeptin treatment. Mice were injected i.p with 100 μl of 1/10/100 μM Kp-10 peptide (SEQ ID NO:3) (synthesized at the Weizmann Institute of Science, or Sigma-Aldrich, Israel) dissolved in PBS, 30 minutes before the PPI analysis.
Neurotensin receptor antagonist SR142948 (TOCRIS COOKSON LTD) was used at 100 μg/kg 60 min before the PPI analysis.
GnRH receptor antagonist Cetrorelix Acetate (Cetrotide™, Anaspec Inc. Fremont, Calif.). Control mice were administered the same volume of PBS.
To examine whether Kp-10 can elevate PPI in naïve mice in a dose dependent manner, we analyzed PPI in C57B1/6 mice that were injected i.p with 100 μl of 1/10/100 μM Kp-10 (SEQ ID NO:3).

For YNWNSFGLRF—NH2 [Kp-10], the PPI entry in the assay with naive C57B1/6 mice (100 μl of 1000 μM, small group, data not shown, vs PBS) was “no improvement was detected”. In addition, the PPI entry in the assay with naive C57B1/6 mice (female C57B1/6 mice, single dose 100 μl of 100 μM) is “significantly increased the PPI”. For the same substance, in the assay on naive C57B1/6 mice (male mice, 100 μl of 100 μM), the “PPI 24 hours after administration (ANOVA of percent PPI)” value is “no significant main effect of the treatment” and the “duration of the effect on PPI” value is “less than 24 hours”. Moreover, the “PPI after repeated injection” value with naive C57B1/6 mice (male mice, repeated injection 24 hours after the first) was “induced the elevation of the PPI again”. Also, in the assay with naive C57B1/6 mice (male mice, repeated injection 7 days after the first), the “PPI after repeated injection” value is “induced the elevation of the PPI again”. In addition, in the assay with naive C57B1/6 mice (naive animals, single injection at adolescence, vs PBS), the PPI at adulthood entry was “no differences between the Kp-10 and the PBS treated mice”. Besides, the PPI result with naive C57B1/6 mice (naive male mice, i.p. 100 μl of 1 μM, vs PBS) is on record as “improved PPI but the improvement was not statistically significant”. In the assay with naive C57B1/6 mice (naive male mice, i.p. 100 μl of 10 μM, vs PBS), the PPI result was “significantly increased PPI”. In addition, the PPI result in the assay with naive C57B1/6 mice (naive male mice, i.p. 100 μl of 100 μM, vs PBS) is listed as “significantly increased PPI”. Further, in the assay on BDNF, the “Expression of BDNF1 transcript” value is given as “*2.2 ± 0.5”, the “Expression of BDNF2 transcript” value is recorded as “^#6.7 ± 1 ^”, the “Expression of BDNF3 transcript” value is given as 8 ± 3 and the “Expression of BDNF4 transcript” value worked out at 9 ± 2. The “Expression of BDNF transcript (total BDNF)” value with BDNF is listed as 2.4 ± 0.5. In the assay with naive mice, the “duration of the total immobility” value was “shorter” and the “latency to the first immobility” value is recorded as “longer”. Moreover, the PPI levels entry in the assay on C57B1/6 mice was “improved the PPI levels”. Besides, the PPI result in the assay on SCID mice is “restored the PPI of SCID mice back to the normal level”. In addition, the GPR54 activation result in the assay with GPR54 is recorded as “activate GPR54 in vivo”.

These data come from patent publication US8716228B2, “GPR54 agonists or antagonists for treatment of diseases presenting behavioral abnormalities” (YEDA Research and Development Co. Ltd., priority 2009, dated 2014).
